For 17 molecules, inhibition and IC50 results are on record in patent US9695154B2, “Heteroaryl inhibitors of sumo activating enzyme” (MILLENNIUM PHARMACEUTICALS, INC., priority 2013, dated 2017).

This test concerns the target T1, recombinant human SAE enzyme (Homo sapiens, UniProt Q9UBT2).
T1 sequence (Q9UBT2 1-640): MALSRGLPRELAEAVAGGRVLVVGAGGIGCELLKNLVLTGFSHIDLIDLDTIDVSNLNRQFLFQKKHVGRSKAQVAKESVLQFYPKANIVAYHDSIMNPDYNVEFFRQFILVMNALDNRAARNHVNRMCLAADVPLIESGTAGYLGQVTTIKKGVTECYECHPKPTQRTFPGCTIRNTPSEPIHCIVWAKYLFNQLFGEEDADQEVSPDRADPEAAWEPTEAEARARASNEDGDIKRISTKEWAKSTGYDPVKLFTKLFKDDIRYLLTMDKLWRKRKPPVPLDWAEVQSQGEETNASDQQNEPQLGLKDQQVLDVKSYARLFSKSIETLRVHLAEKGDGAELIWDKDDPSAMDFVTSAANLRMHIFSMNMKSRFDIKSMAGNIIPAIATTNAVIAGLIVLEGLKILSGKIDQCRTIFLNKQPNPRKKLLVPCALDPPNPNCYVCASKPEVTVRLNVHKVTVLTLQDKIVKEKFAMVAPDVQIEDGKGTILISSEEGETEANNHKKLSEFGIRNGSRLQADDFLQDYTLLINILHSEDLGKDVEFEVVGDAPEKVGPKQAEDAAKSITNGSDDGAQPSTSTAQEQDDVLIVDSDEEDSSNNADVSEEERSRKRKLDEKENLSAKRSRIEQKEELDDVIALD
T1 sequence (Q9UBE0 1-346 partner): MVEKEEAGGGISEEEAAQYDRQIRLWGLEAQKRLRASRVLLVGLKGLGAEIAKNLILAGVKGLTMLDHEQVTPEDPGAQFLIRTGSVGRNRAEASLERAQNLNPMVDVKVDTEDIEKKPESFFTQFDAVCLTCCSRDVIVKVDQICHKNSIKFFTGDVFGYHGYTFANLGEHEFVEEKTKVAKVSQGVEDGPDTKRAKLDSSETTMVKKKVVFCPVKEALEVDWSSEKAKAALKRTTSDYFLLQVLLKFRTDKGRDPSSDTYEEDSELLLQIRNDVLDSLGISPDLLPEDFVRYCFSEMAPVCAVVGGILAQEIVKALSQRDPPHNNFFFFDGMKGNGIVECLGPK
Description: SAE HTRF Enzyme Assay. The note with it: for inhibition at 0.111 µM: compound concentration 0.111 μM, read-out: Percent Inhibition; for IC50: class symbols A-C. It is filed as biochemical. The method in brief:
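Sumoylation of Ubc9-GST by recombinant human SAE was followed by time-resolved FRET between Eu-cryptate anti-Flag and allophycocyanin anti-GST antibodies. The enzyme step used low ATP (0.5 μM) at pH 7.5 and ran 105 min at 24° C.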
(In TR-FRET formats the signal depends on donor and acceptor labels being close together.)

Structures are written as SMILES.

The term inhibition denotes the relative decrease from the control value, in per cent. Regarding `NS(=O)(=O)OC[C@@H]1C[C@@H](Nc2ncncc2C(=O)c2ccn(Cc3cccc(Br)c3)n2)C[C@@H]1O` [Compound I-2, {(1S,2S,4R)-4-[(5-{[1-(3-bromobenzyl)-1H-pyrazol-3-yl]carbonyl}pyrimidin-4-yl)amino]-2-hydroxycyclopentyl}methyl sulfamate], the inhibition at 0.111 µM is 99%.

The term IC50 denotes the concentration that gives 50% inhibition. Turning to `NS(=O)(=O)OC[C@H]1C[C@@H](Nc2ncncc2C(=O)c2ccn(Cc3cccc(C(F)(F)F)n3)n2)C[C@@H]1O` [Compound I-3, [(1R,2S,4R)-2-hydroxy-4-({5-[(1-{[6-(trifluoromethyl)pyridin-2-yl]methyl}-1H-pyrazol-3-yl)carbonyl]pyrimidin-4-yl}amino)cyclopentyl]methyl sulfamate], the IC50 is less than 10 nM and the inhibition at 0.111 µM was 98%.

For `Cc1ccn(CCn2ccc(C(=O)c3cncnc3N[C@@H]3C[C@H](COS(N)(=O)=O)[C@@H](O)[C@H]3O)n2)n1` [Compound I-4, [(1R,2R,3S,4R)-2,3-dihydroxy-4-{[5-({1-[2-(3-methyl-1H-pyrazol-1-yl)ethyl]-1H-pyrazol-3-yl}carbonyl)pyrimidin-4-yl]amino}cyclopentyl]methyl sulfamate], the concentration for half-maximal inhibition (IC50) lay in the range of 10 to 100 nM and the inhibition at 0.111 µM worked out at 80%.

In the case of `NS(=O)(=O)OC[C@H]1C[C@@H](Nc2ncncc2C(=O)c2ccn(CC3=CCOCC3)c2)[C@@H](F)[C@@H]1O` [Compound I-5, {(1R,2R,3R,4R)-4-[(5-{[1-(3,6-dihydro-2H-pyran-4-ylmethyl)-1H-pyrrol-3-yl]carbonyl}pyrimidin-4-yl)amino]-3-fluoro-2-hydroxycyclopentyl}methyl sulfamate], the IC50 fell in the range of 10 to 100 nM and the inhibition at 0.111 µM came to 89%.

Turning to `Cc1cc(C(=O)c2cncnc2N[C@@H]2C[C@@H](COS(N)(=O)=O)[C@@H](O)C2)nn1Cc1cccc(Br)c1` [Compound I-6, {(1S,2S,4R)-4-[(5-{[1-(3-bromobenzyl)-5-methyl-1H-pyrazol-3-yl]carbonyl}pyrimidin-4-yl)amino]-2-hydroxycyclopentyl}methyl sulfamate], the IC50 was less than 10 nM and the inhibition at 0.111 µM came out at 99%.

For the molecule `NS(=O)(=O)OC[C@H]1C[C@@H](Nc2ncncc2C(=O)c2ccn(Cc3cccc(C(F)(F)F)c3)c2)[C@@H](F)[C@@H]1O` [Compound I-7, [(1R,2R,3R,4R)-3-fluoro-2-hydroxy-4-{[5-({1-[3-(trifluoromethyl)benzyl]-lH-pyrrol-3-yl}carbonyl)pyrimidin-4-yl]amino}cyclopentyl]methyl sulfamate], the IC50 was less than 10 nM and the inhibition at 0.111 µM turned out to be 99%.

For `NS(=O)(=O)OC[C@H]1C[C@@H](Nc2ncncc2C(=O)c2ccn(Cc3cccc(Cl)n3)c2)[C@@H](F)[C@@H]1O` [Compound I-8, [(1R,2R,3R,4R)-4-{[5-({1-[(6-Chloropyridin-2-yl)methyl]-1H-pyrrol-3-yl}carbonyl)pyrimidin-4-yl]amino}-3-fluoro-2-hydroxycyclopentyl]methyl sulfamate], the IC50 is less than 10 nM and the inhibition at 0.111 µM is 99%.

`NS(=O)(=O)OC[C@H]1C[C@@H](Nc2ncncc2C(=O)c2ccn(Cc3cccc(Br)c3)n2)C[C@@H]1O` [Compound I-11, {(1R,2S,4R)-4-[(5-{[1-(3-bromobenzyl)-1H-pyrazol-3-yl]carbonyl}pyrimidin-4-yl)amino]-2-hydroxycyclopentyl}methyl sulfamate]: the inhibition at 0.111 µM was 100%.

As to `NS(=O)(=O)OC[C@H]1C[C@@H](Nc2ncncc2C(=O)c2ccn(CC#CCC3CCOCC3)n2)C[C@@H]1O` [Compound I-12, [(1R,2S,4R)-2-hydroxy-4-{[5-({1-[4-(tetrahydro-2H-pyran-4-yl)but-2-yn-1-yl]-1H-pyrazol-3-yl}carbonyl)pyrimidin-4-yl]amino}cyclopentyl]methyl sulfamate], the half-maximal inhibitory concentration (IC50) is 100 to 1000 nM and the inhibition at 0.111 µM was 39%.

With `NS(=O)(=O)OC[C@H]1C[C@@H](Nc2ncncc2C(=O)c2ccn(Cc3cccc(I)c3)c2)[C@@H](F)[C@@H]1O` [Compound I-13, {(1R,2R,3R,4R)-3-fluoro-2-hydroxy-4-[(5-{[1-(3-iodobenzyl)-1H-pyrrol-3-yl]carbonyl}pyrimidin-4-yl)amino]cyclopentyl}methyl sulfamate], the 50% inhibitory concentration (IC50) was less than 10 nM and the inhibition at 0.111 µM stood at 100%.

As to `Cc1cc(Cn2ccc(C(=O)c3cncnc3N[C@@H]3C[C@H](COS(N)(=O)=O)[C@@H](O)C3)n2)ccc1F` [Compound I-14, {(1R,2S,4R)-4-[(5-{[1-(4-fluoro-3-methylbenzyl)-1H-pyrazol-3-yl]carbonyl}pyrimidin-4-yl)amino]-2-hydroxycyclopentyl}methyl sulfamate], the concentration for half-maximal inhibition (IC50) was less than 10 nM and the inhibition at 0.111 µM is 98%.

As to `NS(=O)(=O)OC[C@H]1C[C@@H](Nc2ncncc2C(=O)c2ccn(Cc3cccc(Br)c3)n2)[C@@H](F)[C@@H]1O` [Compound I-15, {(1R,2R,3R,4R)-4-[(5-{[1-(3-bromobenzyl)-1H-pyrazol-3-yl]carbonyl}pyrimidin-4-yl)amino]-3-fluoro-2-hydroxycyclopentyl}methyl sulfamate], the IC50 was less than 10 nM and the inhibition at 0.111 µM worked out at 98%.

Take `NS(=O)(=O)OC[C@H]1C[C@@H](Nc2ncncc2C(=O)c2ccn(Cc3c(F)ccc(F)c3F)n2)C[C@@H]1O` [Compound I-16, {(1R,2S,4R)-2-hydroxy-4-[(5-{[1-(2,3,6-trifluorobenzyl)-1H-pyrazol-3-yl]carbonyl}pyrimidin-4-yl)amino]cyclopentyl}methyl sulfamate]: the IC50 was less than 10 nM and the inhibition at 0.111 µM came to 98%.

Take `NS(=O)(=O)OC[C@H]1C[C@@H](Nc2ncncc2C(=O)c2ccn(Cc3cc4ccccc4o3)n2)C[C@@H]1O` [Compound I-17, {(1R,2S,4R)-4-[(5-{[1-(1-benzofuran-2-ylmethyl)-1H-pyrazol-3-yl]carbonyl}pyrimidin-4-yl)amino]-2-hydroxycyclopentyl}methyl sulfamate]: the IC50 is less than 10 nM and the inhibition at 0.111 µM amounted to 99%.

As to `NS(=O)(=O)OC[C@H]1C[C@@H](Nc2ccncc2C(=O)c2ccn(Cc3cccc(OC(F)(F)F)c3)n2)C[C@@H]1O` [Compound I-18, [(1R,2S,4R)-2-hydroxy-4-{[3({1-[3-(trifluoromethoxy)benzyl]-1H-pyrazol-3-yl}carbonyl)pyridin-4-yl]amino}cyclopentyl]methyl sulfamate], the concentration for half-maximal inhibition (IC50) is less than 10 nM and the inhibition at 0.111 µM worked out at 96%.

Take `NS(=O)(=O)OC[C@H]1C[C@@H](Nc2ncncc2C(=O)c2ccn(CC(=O)N3CCCC3)n2)[C@@H](F)[C@@H]1O` [Compound I-19, [(1R,2R,3R,4R)-3-Fluoro-2-hydroxy-4-{[5-({1-[2-oxo-2-(pyrrolidin-1-yl)ethyl]-1H-pyrazol-3-yl}carbonyl)pyrimidin-4-yl]amino}cyclopentyl]methyl sulfamate]: the IC50 lay in the range of 100 to 1000 nM and the inhibition at 0.111 µM was 20%.

Turning to `NS(=O)(=O)OC[C@H]1C[C@@H](Nc2ncncc2C(=O)c2ccn(Cc3cccc(OC(F)(F)F)c3)n2)C[C@@H]1O` [Compound I-20, [(1R,2S,4R)-2-hydroxy-4-{[5-({1-[3-(trifluoromethoxy)benzyl]-1H-pyrazol-3-yl}carbonyl)pyrimidin-4-yl]amino}cyclopentyl]methyl sulfamate], the 50% inhibitory concentration (IC50) is less than 10 nM and the inhibition at 0.111 µM came out at 96%.
